Where two headings read alike, the source gives them in different places. Starred links: 1 amine or outer side, 2 acyl side, 3 side chain; linkers in the order of their positions; H or OH if unused. Positions of bridges follow the written chain, without caps; N, C: chain ends. Non-standard residues stand in square brackets, D forms with d. Residues, ends and D or L forms follow the SMILES beside them. *: point of attachment. Leu(3R-O(AcLeu(3R-OH))) = CC(=O)N[C@H](C(=O)O[C@H](C(C)C)[C@H](N)C(=O)O)[C@H](O)C(C)C; Leu(3R-OH,Nα-propionyl) = CCC(=O)N[C@H](C(=O)*)[C@H](O)C(C)C; X1 = CC(C)[C@@H](O[*:3])[C@H](N[*:1])C(=O)[*:2]; NMeT = CN[C@H](C(=O)O)[C@@H](C)O; dPhLac = O=C(O)[C@H](O)Cc1ccccc1; NMeA = CN[C@@H](C)C(=O)O; NMeDha = C=C(NC)C(=O)O; Propionyl = CCC(=O)*
Legend:
[1] = test system: 92.1 uveal melanoma cell line (heterozygous GNAQ Q209L); assay: Cell proliferation assay (resazurin cell viability), 92.1 cell line; type: cell-based
From the text: (§1) Cell Proliferation Assays with Chromodepsins (compounds (A1) and 2-15): Cell line descriptions: 92.1—uveal melanoma cell line, derived from primary tumor, harboring heterozygous GNAQ Q209L mutation. Purchased from Sigma Aldrich. MP41 (CRL-3297) -uveal melanoma cell line, derived from primary tumor, harboring heterozygous GNA11 Q209L mutation. Purchased from ATCC. A375—skin melanoma cell line, harboring homozygous BRAF V600E mutation. Origin: Cancer Cell Line Encyclopedia (CCLE). SK-MEL-30—skin melanoma cell line, harboring heterozygous NRAS Q61K mutation. Origin: CCLE.
(§2) Cells were cultured in 96-well plates in a total volume of 100 μL at 37° C., 5% CO2 and 95% relative humidity. All cell lines were cultured in RPMI Medium (RPMI 1640 w/o L-glutamine, Bioconcept ref. 1-41F01-I) except A375, DMEM medium (DMEM high glucose (4.5 g/L), Bioconcept, ref. 1-26F01-I), and supplemented with 10% FCS (Bioconcept, ref. 2-01F30-I). Two to three thousand cells were seeded in 96-well plates per well the night before they were treated with compounds (concentration range: from 260 nM to 0.036 nM with ⅓ dilution steps; for 7 the concentration range was increased from 10000 nM to 1.52 nM with ⅓ dilution steps). Cell viability was measured by addition of 10 ul of resazurin per well after 96 hours of treatment. Results were analyzed and plotted using GraphPad Prism 9.0.1.

[2] = test system: MP41 uveal melanoma cell line (heterozygous GNA11 Q209L); assay: Cell proliferation assay (resazurin cell viability), MP41 cell line; type: cell-based
From the text: as §1, §2

[3] = test system: A375 skin melanoma cell line (homozygous BRAF V600E); assay: Cell proliferation assay (resazurin cell viability), A375 cell line; type: cell-based
From the text: as §1, §2

[4] = test system: SK-MEL-30 skin melanoma cell line (heterozygous NRAS Q61K); assay: Cell proliferation assay (resazurin cell viability), SK-MEL-30 cell line; type: cell-based
From the text: as §1, §2

[5] = test system: 92.1 and MP41 cell lines (GNAQ/GNA11 mutant uveal melanoma); assay: Cell proliferation assays, potency ranking over both uveal melanoma lines; type: cell-based; conditions: 92.1 and MP41 cell lines
From the text: The selective antiproliferative profile of the chromodepsins against GNAQ/GNA11 mutant cell lines is confirmed by the lack of activity against the A375 and SK MEL 30 cell lines that are independent from GNAQ/GNA11 signaling. The potency ranking using the 92.1 and MP41 cell lines is in good agreement with the previously SAR studies. […] These findings are in line with a recent report from Voss et al., highlighting the importance of the “lipophilic anchors” of compound (A1) at the residues varied in compounds 2 and 3, in context of binding kinetics and prolonged residence time on the target proteins. The retained potency of compound 4 indicates a promising exit vector for potential synthetic or biosynthetic modifications of the scaffold. […] The linearized depsipeptides compounds 5-7 lack any antiproliferative activity. In this experimental setup, the cellular permeability of the compounds was a crucial factor contributing to the observed antiproliferative potency. Therefore, all compounds were characterized in a low efflux MCDK assay and determined their exposed polar surface areas (EPSA) in order to assess their passive cellular permeabilities. All macrocyclic chromodepsins that feature the N acyl Hle side chain show similar results concerning their % fraction absorbed (% FA; average ˜60% FA+20%) and EPSA values.
as §1, §2

MDCK-LE monolayers = assay: Cell-based transwell assay with MDCK-low efflux monolayers (passive permeability); type: in vitro ADME; conditions: MDCK-LE monolayers
Experimental: Cell-based transwell assays with MDCK-low efflux monolayers: Compounds (A1) and 2-15 were tested in MDCK cell sub-clones with low effluxt ransporter activity (MDCK-LE) in order to determine their passive permeability. The incubations were performed at a contract research organization as described previously.

[6] = EPSA determination by supercritical fluid chromatography; type: physicochemical; conditions: modified EPSA method, SFC
Experimental: […] by supercritical fluid chromatography: Compounds (A1) and 2-15 were tested by supercritical fluid chromatography (SFC) to determine their ESAPSA values. Samples were analyzed using a Chirex 3014 column ([…], 3×100 mm column, 100 Å pore size; Phenomenex. The starting conditions were 5% methanol containing 20 mM ammonium formate and 95% scCO2. The gradient was increased linearly to 60% methanol containing 20 mM ammonium formate in 4.5 min.

[7] = 92.1 (GNAQ Q209L), 96 hours of treatment, read-out: GI50 by cell line, 92.1
[8] = 92.1 cell line, average of Rep. 1 and 2, read-out: GI50 92.1 Average
[9] = 92.1 cell line, replicate 1, read-out: GI50 92.1 Rep. 1
[10] = 92.1 cell line, replicate 2, read-out: GI50 92.1 Rep. 2
[11] = MP41 (GNA11 Q209L), 96 hours of treatment, read-out: GI50 by cell line, MP41
[12] = MP41 cell line, average of Rep. 1 and 2, read-out: GI50 MP41 Average
[13] = MP41 cell line, replicate 1, read-out: GI50 MP41 Rep. 1
[14] = MP41 cell line, replicate 2, read-out: GI50 MP41 Rep. 2
[15] = A375 (GNAQ/11 wild type), 96 hours of treatment, read-out: GI50 by cell line, A375
[16] = A375 cell line, average of Rep. 1 and 2, read-out: GI50 A375 Average
[17] = A375 cell line, replicate 1, read-out: GI50 A375 Rep. 1
[18] = A375 cell line, replicate 2, read-out: GI50 A375 Rep. 2
[19] = SK-MEL-30 (GNAQ/11 wild type), 96 hours of treatment, read-out: GI50 by cell line, SK-MEL-30
[20] = SK-MEL-30 cell line, average of Rep. 1 and 2, read-out: GI50 SK-MEL-30 Average
[21] = SK-MEL-30 cell line, replicate 1, read-out: GI50 SK-MEL-30 Rep. 1
[22] = SK-MEL-30 cell line, replicate 2, read-out: GI50 SK-MEL-30 Rep. 2

Compound: C=C1C(=O)N[C@@H](C)C(=O)N(C)[C@@H](C)C(=O)N[C@@H]([C@H](OC(=O)[C@@H](NC(=O)CC)[C@H](O)C(C)C)C(C)C)C(=O)N(C)[C@@H]([C@@H](C)OC)C(=O)O[C@H](C(C)C)[C@H](NC(=O)CC)C(=O)O[C@H](Cc2ccccc2)C(=O)N1C [Compound 9] (Propionyl-[X1][dPhLac][NMeDha]A[NMeA][X1](Leu(3R-OH,Nα-propionyl))[NMeT](Me); ester 1-C)
- GI50 [1, 7]: 1.4 nM
- GI50 [1, 8]: 1.4 nM
- GI50 [1, 9]: 1.2 nM
- GI50 [1, 10]: 1.69 nM
- GI50 [2, 11]: 0.7 nM
- GI50 [2, 12]: 0.7 nM
- GI50 [2, 13]: 0.6 nM
- GI50 [2, 14]: 0.78 nM
- GI50 [3, 15]: > 260 nM
- GI50 [3, 16]: > 260 nM
- GI50 [3, 17]: > 260 nM
- GI50 [3, 18]: > 260 nM
- GI50 [4, 19]: > 260 nM
- GI50 [4, 20]: > 260 nM
- GI50 [4, 21]: > 260 nM
- GI50 [4, 22]: > 260 nM
- loss of potency compared to compound (A1) (growth inhibition) [5]: two to three

Compound: C=C1C(=O)N[C@@H](C)C(=O)N(C)[C@@H](C)C(=O)N[C@@H]([C@H](OC(=O)[C@@H](NC(C)=O)[C@H](O)C(C)C)C(C)C)C(=O)N(C)[C@@H]([C@@H](C)OC)C(=O)O[C@H](C)[C@H](NC(C)=O)C(=O)O[C@H](Cc2ccccc2)C(=O)N1C [Compound 13] (Ac-T[dPhLac][NMeDha]A[NMeA][Leu(3R-O(AcLeu(3R-OH)))][NMeT](Me); ester 1-C)
- GI50 [1, 7]: 15.7 nM
- GI50 [1, 8]: 15.7 nM
- GI50 [1, 9]: 10.1 nM
- GI50 [1, 10]: 21.4 nM
- GI50 [2, 11]: 6 nM
- GI50 [2, 12]: 6 nM
- GI50 [2, 13]: 3.6 nM
- GI50 [2, 14]: 8.31 nM
- GI50 [3, 15]: > 260 nM
- GI50 [3, 16]: > 260 nM
- GI50 [3, 17]: > 260 nM
- GI50 [3, 18]: > 260 nM
- GI50 [4, 19]: > 260 nM
- GI50 [4, 20]: > 260 nM
- GI50 [4, 21]: > 260 nM
- GI50 [4, 22]: > 260 nM
- % Fraction absorbed (MDCK-LE monolayers): 46.5%
- % Recovery (MDCK-LE monolayers): 85%
- Papp A − B (MDCK-LE monolayers): 2.69 ×10⁻⁶ cm/s
- EPSA [6]: 95 A^2

Reference: US20240252668A1, “ANTIBODY DRUG CONJUGATES AND METHODS FOR MAKING THEREOF” (Novartis AG, priority 2021, published 2024)
